Measurements published in patent US9018244B2, “Benzopyran compounds, compositions and uses thereof” (Olema Pharmaceuticals, Inc., priority 2011, dated 2015).
Entries after “also recorded” stand apart in the source; their conditions may differ.

Tests used:
[1] = tested on: mouse uterus; assay: Uterine wet weight in ovariectomized BALB/c mice; assay type: in vivo; conditions: for Uterine wet weight, agonist mode (without E2): q.d. three days, 100 mg/ml OP-1038 p.o. in 0.5% CMC; for Uterine wet weight, antagonist mode (+E2): three days, co-treated with 0.1 μg/ml E2 sc
Method: FIG. 9. […] Uterine wet weight was measured at the end of three days after treating ovariectomized BALB/c mice q.d. with vehicle or one of the following treatments (10 mice per group): 50 mg/kg tamoxifen p.o. in 0.5% carboxymethylcellulose (CMC); 50 mg/kg fulvestrant sc in 5% ethanol; […] OP-1038 p.o. in 0.5% CMC. Half the animals in each group were co-treated with 0.1 μg/ml E2 sc in cottonseed oil-ethanol (95:5), or vehicle alone. Animal experiments were conducted at the University of California, San Francisco following institutional animal care and use committee protocols.

[2] = target: T1, estrogen receptor alpha (ERα) (Homo sapiens, UniProt P03372); assay: ERα expression by immunoblot after anti-estrogen treatment; assay type: cell-based; conditions: 100 nM anti-estrogen, 22-24 hours, serum-free medium; MCF-7 breast cells and ECC-1 endometrial cells
T1 construct: endogenous in cells
T1 sequence (P03372 1-595): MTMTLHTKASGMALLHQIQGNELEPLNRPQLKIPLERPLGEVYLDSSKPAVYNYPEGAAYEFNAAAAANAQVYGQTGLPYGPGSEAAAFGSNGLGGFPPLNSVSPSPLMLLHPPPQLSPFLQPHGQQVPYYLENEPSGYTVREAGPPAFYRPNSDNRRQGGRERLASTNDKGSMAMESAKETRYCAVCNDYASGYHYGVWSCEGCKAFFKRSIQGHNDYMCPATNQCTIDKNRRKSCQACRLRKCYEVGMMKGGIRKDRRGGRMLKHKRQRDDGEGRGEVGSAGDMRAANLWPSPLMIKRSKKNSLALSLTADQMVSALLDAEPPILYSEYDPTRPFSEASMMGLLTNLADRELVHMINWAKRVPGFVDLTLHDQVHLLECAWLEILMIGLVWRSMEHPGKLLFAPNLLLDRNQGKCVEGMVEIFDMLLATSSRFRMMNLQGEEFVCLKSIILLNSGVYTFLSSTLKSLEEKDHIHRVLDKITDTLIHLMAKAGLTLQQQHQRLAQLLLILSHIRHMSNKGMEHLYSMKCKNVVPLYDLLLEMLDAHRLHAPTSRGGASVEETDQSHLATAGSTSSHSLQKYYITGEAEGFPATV
Method: FIG. 12. […] A) ERα levels in breast cells after treatment with OP-1074 compared to treatment with model anti-estrogens. MCF-7 cells were treated with 100 nM anti-estrogen for 24 hours in serum-free medium and protein extracts immunoblotted with an antibody to ERα (D12, Santa Cruz Biotechnology, Santa Cruz, Calif.). Image is from a single representative experiment and number on top denotes the mean percent ERα expression relative to vehicle from quadruplicate treatments. B) OP-1038 induces degradation of ERα in both MCF-7 breast cells and ECC-1 endometrial cells.
ERα expression was detected in MCF-7 cell lysates treated with 100 nM anti-estrogens in serum-free medium for 22-24 hours and immunoblotted with an antibody specific to ERα as described in the legend to, and depicted in FIG. 12.

[3] = Single dose oral pharmacokinetics study in female rats; assay type: in vivo, female Sprague Dawley rats
Method: The oral bioavailabilty in rats of OP-1038 was determined in the following study. 3 rats (female Sprague Dawley, non-fasted) were dosed by oral gavage (5 mg/kg body weight) in 0.5% CMC in water with a comparison to intravenous dosing (3 mg/kg body weight). Plasma was collected at the following hourly time points from rats in both groups (0, 0.08, 1.0, 2.0, 4.0, 8.0, 16.0, 24.0, 48.0 and 96.0 hours post dosing). Plasma concentrations of OP-1038 were determined by HPLC.

[4] = tested on: MCF-7 HER2/neu Clone 18 xenograft; assay: Mammary tumor xenograft study; assay type: in vivo, ovariectomized athymic nude mice; conditions: 100 mg/kg twice daily by oral gavage, mice implanted with estrogen pellets
Source text: FIG. 13. […] A) Percent change in tumor volume of human MCF-7 HER2/neu clone 18 xenografts in ovariectomized athymic nude mice implanted with estrogen pellets and treated with either tamoxifen (by oral gavage), fulvestrant (Faslodex) by s.c. injection, or OP-1074 (by oral gavage). B) Weights of the animals treated as above. C) Waterfall plot of final tumor volumes compared with volumes at the start of treatment.
The purpose of this study is to examine the ability of OP-1074, to slow or shrink a tamoxifen resistant tumor (MCF-7 HER2/neu Clone 18) xenograft growing on ovariectomized athymic nude mice under stimulation from exogenous estrogen. Clone 18 cells grown in culture are implanted along with 0.18 mg estradiol/90 day release pellets (Innovative Research, Sarasota Fla.) into 55 mice to initiate the experiment. When the tumors have reached 250 cubic millimeters the mice are divided into four groups of 10 mice each and dosing initiated. The four groups are:
1) No hormonal treatment—this group receives daily gavage with vehicle.
2) Tamoxifen citrate 100 mg/kg daily by oral gavage in vehicle.
3) Faslodex 100 mg/kg delivered daily by subcutaneous injection.
4) OP-1074 100 mg/kg twice daily by oral gavage in vehicle with the exception of two weekends in which dosing was once daily.

[5] = Sprague-Dawley, rat, plasma, Oral, 5.00 mg/kg, female S.D. rats

AUCextrap ([3]; Oral, 5.00 mg/kg, female S.D. rats) [%]	bioavailability ([3]; Sprague-Dawley, rat, plasma, Oral 5 mg/kg compared to intravenous 3 mg/kg, female S.D. rats, read-out: F % (Oral bioavailability)) [%]	Cmax ([3]; Sprague-Dawley, rat, plasma, Oral, 5.00 mg/kg, 0.5% CMC, female S.D. rats) [ng/mL]	AUC(0-inf) [3, 5] [ng·h/mL]	MRT last [3, 5] [h]	Tmax [3, 5] [h]	half-life [3, 5] [h]	AUC(0-t) ([3]; Sprague-Dawley, rat, plasma, Oral, 5.00 mg/kg, female S.D. rats, read-out: AUClast (0 to 96 h)) [ng·h/mL]	Oral bioavailability (in words) ([3]; oral gavage 5 mg/kg in rats)	SMILES	Uterine wet weight, agonist mode (without E2) [1]	Uterine wet weight, antagonist mode (+E2) [1]	Degradation of ERα [2]	Tumor volume change of xenografts [4]
10.1 ± 6.26	18.9	24.8 ± 3	671 ± 44.8	25.9 ± 3.37	2.33 ± 1.53	28.5 ± 11.6	603 ± 46.7	orally bioavailable	CC1=C(c2ccc(O)cc2)C(c2ccc(OCCN3CC[C@@H](C)C3)cc2)Oc2cc(O)ccc21 (stereo partly drawn) [OP-1038, 3-(4-hydroxyphenyl)-4-methyl-2-(4-{2-[(3R)-3-methylpyrrolidin-1-yl]ethoxy}phenyl)-2H-chromen-7-ol]	not significantly different from control or fulvestrant	not different from fulvestrant	comparable to fulvestrant; also recorded: induce degradation	–
–	–	–	–	–	–	–	–	–	CC1=C(c2ccc(O)cc2)[C@H](c2ccc(OCCN3CC[C@@H](C)C3)cc2)Oc2cc(O)ccc21 [OP-1074, (2S)-3-(4-hydroxyphenyl)-4-methyl-2-(4-{2-[(3R)-3-methylpyrrolidin-1-yl]ethoxy}phenyl)-2H-chromen-7-ol]	essentially pure anti-estrogen	complete anti-estrogen	comparable to fulvestrant; also recorded: induce degradation	rapid and complete regression
